Test results: PMC3003779 (Chemistry & biology, 2010)
Like-named read-outs stand apart in the source and are kept apart here.

Experiments:
SHR [1] = experiment: mean arterial pressure and heart rate in chronically cannulated conscious SHR; type: in vivo, rat; details: 0.5 mg/kg i.v.
[2] = tested on: anandamide levels in hepatocytes; experiment: anandamide levels in hepatocytes; type: cell-based, mouse; details: 100 nM, dense suspension 40 mg/mL
[3] = tested on: mice with diet-induced obesity; experiment: intraperitoneal glucose tolerance test in mice on high-fat diet; type: in vivo, mouse; details: male DIO mice
FAAH [4] = target: T1, FAAH (Mus musculus, UniProt O08914); type: cell-based; details: 100 nM
T1 sequence (O08914 1-579): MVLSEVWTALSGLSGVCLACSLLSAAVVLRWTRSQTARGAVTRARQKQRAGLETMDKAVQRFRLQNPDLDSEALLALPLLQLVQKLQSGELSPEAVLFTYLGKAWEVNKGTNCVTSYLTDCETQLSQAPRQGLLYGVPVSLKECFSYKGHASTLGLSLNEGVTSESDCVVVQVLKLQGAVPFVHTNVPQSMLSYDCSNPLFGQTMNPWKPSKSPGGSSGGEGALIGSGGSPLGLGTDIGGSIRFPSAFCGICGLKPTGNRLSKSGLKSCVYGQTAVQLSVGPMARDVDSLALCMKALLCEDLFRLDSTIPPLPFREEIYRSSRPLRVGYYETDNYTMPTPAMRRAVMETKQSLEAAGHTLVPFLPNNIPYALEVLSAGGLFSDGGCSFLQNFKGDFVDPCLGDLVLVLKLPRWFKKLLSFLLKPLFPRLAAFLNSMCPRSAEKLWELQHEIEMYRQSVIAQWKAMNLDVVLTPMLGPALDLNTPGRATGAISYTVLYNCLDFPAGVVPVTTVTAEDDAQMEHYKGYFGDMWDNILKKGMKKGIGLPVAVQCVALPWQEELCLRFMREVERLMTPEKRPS

[5] = tested on: [3H]anandamide uptake by cultured CCF-STTG1 astrocytoma cells; experiment: anandamide transport assay; details: concentrations up to 20 μmol/L
human recombinant FAAH = target: T2, human recombinant FAAH (Homo sapiens, UniProt O00519); experiment: biochemical
T2 sequence (O00519 1-579): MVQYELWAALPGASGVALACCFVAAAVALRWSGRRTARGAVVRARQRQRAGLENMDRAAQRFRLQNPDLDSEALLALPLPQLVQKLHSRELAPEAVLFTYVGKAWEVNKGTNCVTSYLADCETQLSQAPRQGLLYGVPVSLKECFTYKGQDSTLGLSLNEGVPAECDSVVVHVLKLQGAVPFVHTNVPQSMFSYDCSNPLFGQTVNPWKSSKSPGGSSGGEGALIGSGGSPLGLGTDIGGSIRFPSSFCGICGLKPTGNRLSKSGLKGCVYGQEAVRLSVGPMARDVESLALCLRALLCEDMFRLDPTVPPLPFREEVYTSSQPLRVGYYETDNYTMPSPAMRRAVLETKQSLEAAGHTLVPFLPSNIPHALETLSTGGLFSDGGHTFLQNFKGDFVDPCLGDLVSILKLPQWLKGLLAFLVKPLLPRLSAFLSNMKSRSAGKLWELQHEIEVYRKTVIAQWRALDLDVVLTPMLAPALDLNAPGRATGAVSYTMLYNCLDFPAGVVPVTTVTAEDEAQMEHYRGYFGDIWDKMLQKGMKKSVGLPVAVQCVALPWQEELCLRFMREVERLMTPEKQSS

SHR and WKY rats [6] = experiment: non-fasting blood glucose in rats; details: 1 mg/kg i.p.
FAAH [7] = target: T3, FAAH (Rattus norvegicus, UniProt P97612); type: in vivo; details: for ID50, inhibition of brain FAAH activity: i.p., 1 h; for reduction of hepatic FAAH activity: 1 mg/kg i.p.
T3 sequence (P97612 1-579): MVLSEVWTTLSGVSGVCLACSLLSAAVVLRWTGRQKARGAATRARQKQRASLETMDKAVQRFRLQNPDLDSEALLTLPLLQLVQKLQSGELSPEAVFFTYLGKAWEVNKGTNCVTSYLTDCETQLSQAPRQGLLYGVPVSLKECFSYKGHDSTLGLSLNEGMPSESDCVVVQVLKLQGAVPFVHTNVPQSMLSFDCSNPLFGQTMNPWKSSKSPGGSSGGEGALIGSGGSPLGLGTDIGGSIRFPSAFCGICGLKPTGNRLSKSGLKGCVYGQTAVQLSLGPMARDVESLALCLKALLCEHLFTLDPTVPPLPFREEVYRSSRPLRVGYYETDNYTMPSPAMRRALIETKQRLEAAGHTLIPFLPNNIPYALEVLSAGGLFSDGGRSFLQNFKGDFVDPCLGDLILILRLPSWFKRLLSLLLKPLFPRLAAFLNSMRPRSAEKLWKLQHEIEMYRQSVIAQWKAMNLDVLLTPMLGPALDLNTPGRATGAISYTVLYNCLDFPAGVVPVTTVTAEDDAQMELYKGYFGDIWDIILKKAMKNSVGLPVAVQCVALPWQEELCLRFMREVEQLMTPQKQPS

FAAH [8] = target: T1, FAAH; experiment: FAAH activity in brain and liver homogenates, drug added in vitro; type: biochemical; details: 100 nM added in vitro, brain and liver homogenates
[9] = tested on: brain anandamide and 2-AG levels; experiment: brain endocannabinoid levels by LC/MS; details: SHR and WKY, bolus i.p. doses, 1 h
SHR [10] = experiment: cardiovascular effects under ganglionic blockade; details: 1 mg/kg, hexamethonium + vasopressin + isoproterenol
FAAH [11] = target: T1, FAAH; experiment: in vivo; type: in vivo
CB1 receptor = CB1 receptor (Rattus norvegicus, UniProt P20272); experiment: radioligand displacement, [3H]CP,55940, rat forebrain membranes
SHR and WKY rats [12] = experiment: mean arterial pressure and heart rate in anesthetized rats; type: in vivo, rat; details: 1 mg/kg i.v.

Chain of CB1 receptor (P20272 whole entry): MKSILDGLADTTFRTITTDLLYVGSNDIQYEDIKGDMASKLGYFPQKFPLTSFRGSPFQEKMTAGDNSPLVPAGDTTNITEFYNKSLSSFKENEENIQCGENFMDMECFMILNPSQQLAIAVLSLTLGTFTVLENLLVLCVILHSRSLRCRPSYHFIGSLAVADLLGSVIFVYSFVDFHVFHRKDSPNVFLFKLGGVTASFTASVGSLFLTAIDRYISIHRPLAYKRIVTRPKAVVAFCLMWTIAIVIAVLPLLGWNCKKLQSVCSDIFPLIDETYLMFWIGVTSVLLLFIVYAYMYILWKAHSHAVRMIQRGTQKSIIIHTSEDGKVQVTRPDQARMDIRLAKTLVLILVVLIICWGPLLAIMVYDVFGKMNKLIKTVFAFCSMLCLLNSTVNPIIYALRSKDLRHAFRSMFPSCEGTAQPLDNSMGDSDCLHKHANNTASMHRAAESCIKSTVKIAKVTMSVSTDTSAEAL

`O=S(=O)(F)CCCCCc1ccc(O)cc1` [AM3506, 5-(4-hydroxyphenyl)pentanesulfonyl fluoride] was tested, and the “duration of MAP and HR effects” value (SHR [1]; awake SHR, n = 5) was “up to 60 minutes”, the MAP after treatment (SHR [1]; conscious SHR, from 176 ±4, n=4) was 127±5 mmHg and the HR after treatment (SHR [1]; conscious SHR, from 355±6, n=4) was 286±22 bpm. For the same compound, the “duration of MAP and HR effects” value (SHR [1]; conscious SHR, n=4) was “up to an hour”, the “anandamide levels in hepatocytes” value [2] was “remained unchanged” and the “effect on glucose tolerance” value ([3]; 1 mg/kg) was “did not affect glucose tolerance”. For the same compound, the “ipGTT area under the curve (AUC)” value ([3]; 1 mg/kg i.p. 60 min before glucose, vehicle 352±28) was 411 ± 35 mg·h/dL, the “FAAH activity in cells, dense hepatocyte suspension” value (FAAH [4]; 40 mg/mL) was “no measurable change” and the “FAAH activity in cell pellet, dilute hepatocyte suspension” value (FAAH [4]; 30 min, 1 mg wet cell weight/mL) was “nearly completely blocked”. For the same compound, the “effect on anandamide transport” value [5] was “did not affect”, the IC50 (human recombinant FAAH) was 48 nM and the “non-fasting blood glucose after treatment” value (SHR and WKY rats [6]; SHR, from 97.8±5.6) was 96.8 ± 2.9 mg/dL. The “non-fasting blood glucose after treatment” value (SHR and WKY rats [6]; WKY, from 114.5±5.3) was 108.2 ± 4.5 mg/dL, the “ID50, inhibition of brain FAAH activity” value (FAAH [7]; SHR brain) was roughly 0.1 mg/kg and the “reduction of hepatic FAAH activity” value (FAAH [7]; SHR liver) was 11.1±0.4%. The “ID50, inhibition of brain FAAH activity” value (FAAH [7]; WKY brain) was roughly 0.1 mg/kg, the “reduction of hepatic FAAH activity” value (FAAH [7]; WKY liver) was 6.7±0.2% and the “FAAH activity in tissue homogenates” value (FAAH [8]) was “equally effective in blocking FAAH activity in brain and liver”. For the same compound, the “brain 2-AG levels” value [9] was “remained unaffected”, the brain anandamide levels [9] was “parallel increases” and the “reduction of the bradycardia elicited by AM3506 under ganglionic blockade” value (SHR [10]) was 74.0±7.7%. For the same compound, the “reduction of the hypotension elicited by AM3506 under ganglionic blockade” value (SHR [10]) was 89.6±3.6%, the “ID50, inhibition of brain FAAH activity” value (FAAH [11]; mouse brain, ex vivo) was 0.10 mg/kg and the “FAAH inhibitory activity in liver” value (FAAH [11]; mouse liver, doses up to 1 mg/kg) was “devoid of substantial FAAH inhibitory activity”. The “suppression of FAAH activity in brain” value (FAAH [11]; oral, 1 mg/kg, brain) was 90±0.4%, the “suppression of hepatic FAAH activity” value (FAAH [11]; oral, 1 mg/kg, liver) was 13±2.6% and the Ki (CB1 receptor) was 5770 nM. For the same compound, the “effect on HR” value (SHR and WKY rats [12]; SHR) was “marked bradycardia”, the “effect on MAP” value (SHR and WKY rats [12]; SHR) was “profound and sustained decrease” and the “effect on MAP and HR” value (SHR and WKY rats [12]; WKY) was “only slight changes”.
